Patent publication US20040219512A1, “Screening methods for cataractogenic risk” (Pfizer Inc, priority 2003, published 2004)

Columns and labels:
[1] = tested on: Rodent lens explants
Description: Rodent lenses were surgically removed and placed in tissue culture 199 (TC199) media (Invitrogen) supplemented with bicarbonate buffer with and without 10 mM TEA (Sigma Aldrich Co.). Darkfield photomicrographs of the cells were taken over a seven day period.

[2] = tested on: SRA 01/04 cells; conditions: concentrations of TEA greater than five mM
Description: Preparation of Lens Epithelial Cell Line Culture Cells from the cell line, SRA 01/04 (deposited in the National Institute of Bioscience and Human-Technology Agency of Industrial Science and Technology, Ibaraki, Japan, international deposit No. FERM BP-5454) were thawed and plated on the bottom of a 25 square centimeter tissue culture flask (Falcon™ Flask, BD Biosciences, Lincoln Park, N.J.) and grown in high-glucose DMEM supplemented with 15% of FBS (Invitrogen, Grand Island, N.Y.) and 1% of penicillin/streptomysin (Invitrogen) at 37° C. in 5% CO2 and 95% air environment. The medium was changed twice a week. When confluence of 90-100% was reached (about 7-14 days), the medium was removed from the culture flask and the cells on the bottoms were washed with one ml of trypsin-EDTA (0.05% trypsin and EDTA, Invitrogen). […]
Approximately 15 μl of the cell suspension was pipetted onto a glass coverslip (Warner Instruments, Hamden, Conn., USA) placed on the transparent bottoms of a recording chamber mounted on an inverted differential interference contrast microscope (Eclipse TE300, Nikon, Tokyo, Japan). Whole cell currents were measured under the whole-cell configuration at room temperature (24-26° C.) using a multiclamp 700A dual channel multi-purpose microelectrode amplifier (Axon Instruments, Foster City, Calif., USA). […]

[3] = tested on: chloride channels on the lens; conditions: literature, Zhang, J. J. (1994); cited from earlier work

SMILES | clouding of the lens compared with control ([1]; 10 mM TEA in TC199 media, photomicrographs over seven days) | pixel intensity histogram of lens explants ([1]; 10 mM TEA, imaged after five days in culture) | additional current block at higher concentration [2] | effect on chloride channels on the lens [3]
CC[N+](CC)(CC)CC [TEA, tetraethylammonium] | increased clouding of the lens | rightward shift in the intensity histogram | no significant additional current block | 
CC/C(=C(\c1ccccc1)c1ccc(OCCN(C)C)cc1)c1ccccc1 [tamoxifen] |  |  |  | blocks chloride channels on the lens
